Test results reported in PubChem BioAssay (NCI).
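Exposure lasted 48 hours, with cells grown in 96-well plates and compounds tested at five concentrations. GI50 = concentration required for 50% inhibition of growth. Definition used: TGI = concentration required for complete inhibition of growth.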

Legend:
Test in all cases: inhibition of tumour cell growth, NCI panel, 48 h
[1] = tested on: SK-MEL-28 melanoma
[2] = tested on: CAKI-1 renal
[3] = tested on: HOP-62 NSCLC
[4] = tested on: OVCAR-4 ovarian
[5] = tested on: SK-MEL-5 melanoma
[6] = tested on: OVCAR-5 ovarian
[7] = tested on: SR leukemia
[8] = tested on: MOLT-4 leukemia
[9] = tested on: HS 578T breast
[10] = tested on: U251 CNS
[11] = tested on: NCI/ADR-RES ovarian
[12] = tested on: TK-10 renal
[13] = tested on: NCI-H226 lung
[14] = tested on: ACHN renal
[15] = tested on: HCT-15 colon
[16] = tested on: DU-145 prostate
[17] = tested on: SW-620 colon
[18] = tested on: KM12 colon
[19] = tested on: OVCAR-8 ovarian
[20] = tested on: CCRF-CEM leukemia
[21] = tested on: RPMI-8226 leukemia
[22] = tested on: MDA-MB-435
[23] = tested on: LOX IMVI melanoma
[24] = tested on: K-562 leukemia
[25] = tested on: UACC-62 melanoma
[26] = tested on: 786-0 renal
[27] = tested on: SF-539 CNS
[28] = tested on: NCI-H460 lung
[29] = tested on: HT29 colon
[30] = tested on: SF-295 CNS
[31] = tested on: SN12C renal
[32] = tested on: MCF7 breast
[33] = tested on: SK-OV-3 ovarian
[34] = tested on: SNB-19 CNS
[35] = tested on: COLO 205 colon
[36] = tested on: HCT-116 colon
[37] = tested on: MALME-3M melanoma
[38] = tested on: MDA-MB-231 breast
[39] = tested on: NCI-H23 lung
[40] = tested on: A498 renal
[41] = tested on: HOP-92 NSCLC
[42] = tested on: HCC-2998 colon
[43] = tested on: UACC-257 melanoma
[44] = tested on: T-47D breast
[45] = tested on: SF-268 CNS
[46] = tested on: HL-60(TB) leukemia
[47] = tested on: M14 melanoma
[48] = tested on: SK-MEL-2 melanoma
[49] = tested on: UO-31 renal
[50] = tested on: SNB-75 CNS
[51] = tested on: BT-549 breast
[52] = tested on: OVCAR-3 ovarian
[53] = tested on: NCI-H522 lung
[54] = tested on: A549 NSCLC
[55] = tested on: PC-3 prostate
[56] = tested on: IGROV1 ovarian

Fc1ccc(Nc2nc3nonc3nc2Nc2ccc(F)cc2)cc1
GI50 [1]: 505 nM
TGI [1]: 11000 nM
GI50 [2]: 350 nM
TGI [2]: 10800 nM
GI50 [3]: 319 nM
TGI [3]: 2130 nM
GI50 [4]: 294 nM
TGI [4]: 10900 nM
GI50 [5]: 229 nM
TGI [5]: 702 nM
GI50 [6]: 709 nM
TGI [6]: 13800 nM
GI50 [7]: 447 nM
TGI [7]: 2750 nM
GI50 [8]: 356 nM
TGI [8]: 1650 nM
GI50 [9]: 370 nM
TGI [9]: 4030 nM
GI50 [10]: 387 nM
TGI [10]: 10800 nM
GI50 [11]: 329 nM
TGI [11]: 2760 nM
GI50 [12]: 435 nM
TGI [12]: 6740 nM
GI50 [13]: 384 nM
TGI [13]: 13900 nM
GI50 [14]: 399 nM
TGI [14]: 7090 nM
GI50 [15]: 384 nM
TGI [15]: 11700 nM
GI50 [16]: 570 nM
TGI [16]: 15000 nM
GI50 [17]: 573 nM
TGI [17]: 14200 nM
GI50 [18]: 395 nM
TGI [18]: 10600 nM
GI50 [19]: 402 nM
TGI [19]: 15400 nM
GI50 [20]: 350 nM
TGI [20]: 10100 nM
GI50 [21]: 207 nM
TGI [21]: 697 nM
GI50 [22]: 338 nM
TGI [22]: 3610 nM
GI50 [23]: 469 nM
TGI [23]: 4290 nM
GI50 [24]: 352 nM
TGI [24]: 12400 nM
GI50 [25]: 283 nM
TGI [25]: 3220 nM
GI50 [26]: 509 nM
TGI [26]: 8480 nM
GI50 [27]: 486 nM
TGI [27]: 11600 nM
GI50 [28]: 319 nM
TGI [28]: 10500 nM
GI50 [29]: 482 nM
TGI [29]: 10700 nM
GI50 [30]: 271 nM
TGI [30]: 1260 nM
GI50 [31]: 301 nM
TGI [31]: 3010 nM
GI50 [32]: 567 nM
TGI [32]: 11200 nM
GI50 [33]: 244 nM
TGI [33]: 852 nM
GI50 [34]: 386 nM
TGI [34]: 16100 nM
GI50 [35]: 342 nM
TGI [35]: 1430 nM
GI50 [36]: 322 nM
TGI [36]: 11400 nM
GI50 [37]: 277 nM
TGI [37]: 1110 nM
GI50 [38]: 493 nM
TGI [38]: 4250 nM
GI50 [39]: 264 nM
TGI [39]: 852 nM
GI50 [40]: 163 nM
TGI [40]: 660 nM
GI50 [41]: 168 nM
TGI [41]: 629 nM
GI50 [42]: 414 nM
TGI [42]: 5490 nM
GI50 [43]: 401 nM
TGI [43]: 3160 nM
GI50 [44]: 221 nM
TGI [44]: 775 nM
GI50 [45]: 505 nM
TGI [45]: 14300 nM
GI50 [46]: 342 nM
TGI [46]: 1500 nM
GI50 [47]: 586 nM
TGI [47]: 10500 nM
GI50 [48]: 285 nM
TGI [48]: 807 nM
GI50 [49]: 285 nM
TGI [49]: 1330 nM
GI50 [50]: 399 nM
TGI [50]: 3380 nM
GI50 [51]: 309 nM
TGI [51]: 2770 nM
GI50 [52]: 371 nM
TGI [52]: 11000 nM
GI50 [53]: 194 nM
TGI [53]: 561 nM
GI50 [54]: 354 nM
TGI [54]: 11400 nM
GI50 [55]: 280 nM
TGI [55]: 11200 nM
GI50 [56]: 570 nM
TGI [56]: 13800 nM
